The values below come from US11999745B2, “Pharmaceutical compounds” (Heptares Therapeutics Limited, priority 2020, dated 2024).

SMILES strings stand for the structures. pEC50: −log10 of the molar value. In brackets after ≈: the same amount, converted by molar mass. Several values for one entry are separate records, joined by “and”; a condition that tells them apart may be missing. Equal values may be shown once. Read-outs that look alike come from different tables or passages of the source.

For data set [1], the target named is T1, human muscarinic M1 receptor (Homo sapiens, UniProt P11229).
T1 construct: expressed in transfected cells
T1 sequence (P11229 1-460): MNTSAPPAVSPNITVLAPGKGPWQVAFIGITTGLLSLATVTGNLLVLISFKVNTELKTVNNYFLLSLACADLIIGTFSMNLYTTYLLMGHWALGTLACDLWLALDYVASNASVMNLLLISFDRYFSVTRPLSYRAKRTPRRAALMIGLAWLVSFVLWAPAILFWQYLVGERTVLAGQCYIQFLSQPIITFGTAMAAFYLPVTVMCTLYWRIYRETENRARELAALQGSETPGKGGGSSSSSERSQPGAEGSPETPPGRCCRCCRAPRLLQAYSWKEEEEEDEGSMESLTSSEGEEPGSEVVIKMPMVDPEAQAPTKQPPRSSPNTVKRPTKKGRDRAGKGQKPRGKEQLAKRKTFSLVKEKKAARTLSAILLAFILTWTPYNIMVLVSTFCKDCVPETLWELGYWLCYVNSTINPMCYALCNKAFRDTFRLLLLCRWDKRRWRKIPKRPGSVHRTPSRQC
Nature of the data set: Alphascreen Surefire phospho-ERK1/2 functional assay, M1. The class given is cell-based. Here is the method:
ERK1/2 phosphorylation is a downstream consequence of both Gq/11 and Gi/o protein coupled receptor activation, making it highly suitable for the assessment of M1, M3 (Gq/11 coupled) and M2, M4 receptors (Gi/o coupled), rather than using different assay formats for different receptor subtypes. CHO cells stably expressing the human muscarinic M1, M2, M3 or M4 receptor were plated (25K/well) onto 96-well tissue culture plates in MEM-alpha+10% dialysed FBS. Once adhered, cells were serum-starved overnight. Agonist stimulation was performed by the addition of 5 μL agonist to the cells for 5 min (37° C.). Media was removed and 50 μL of lysis buffer added.

The nature of data set [2]: Hepatocyte stability, CLint (in vitro hepatocytes), mouse. It is filed as in vitro ADME. To be noted: pooled cryopreserved hepatocytes, 1.0 million cells/mL, 37° C., read-out: in vitro intrinsic clearance (CLint). As to the method:
(§1) Hepatocyte stability assays were performed using pooled cryopreserved hepatocytes (Bioreclamation). Test compounds prepared in DMSO, were incubated at an initial concentration of 1 μM (0.25% DMSO final, n=2) with hepatocytes at cell densities of 1.0 million cells/mL at 37° C. Aliquots were removed at 0.5, 5, 10, 15, 30, 60 and 120 minutes for termination of reactions and compound extraction with acetonitrile containing an analytical internal standard (0.5 μM carbamazepine). Samples were centrifuged and the supernatant fractions analysed for parent compound by mass spectrometry (LC-MS/MS). The amount of compound remaining (expressed as %) was determined from the MS response in each sample relative to that in the T=0 samples (normalised for internal standard). Ln plots of the % remaining were used to determine the half-life for compound disappearance using the relationship: Half-Life(min)=−0.693/λ (where λ is the slope of the Ln % remaining vs time curve).

Data set [3] can be described thus: Hepatocyte stability, CLint (in vitro hepatocytes), dog. It is filed as in vitro ADME. To be noted: pooled cryopreserved hepatocytes, 1.0 million cells/mL, 37° C., read-out: in vitro intrinsic clearance (CLint). Here is the method:
as §1

The test system of another data set is MDR1 (P-glycoprotein). Nature of the data set: MDCK permeability/efflux. It is filed as in vitro ADME. The conditions noted are these: dog. Here is the method: MDR1-MDCK cells (Solvo Biotechnology) were seeded onto 24-well Transwell plates at 2.35×10^5 cells per well and used in confluent monolayers after a 3 day culture at 37° C. under 5% CO2. For cell types, test and control compounds (propranolol, vinblastine) were added (1 μM, 0.1% DMSO final, n=2) to donor compartments of the Transwell plate assembly in assay buffer (Hanks balanced salt solution supplemented with 25 mM HEPES, adjusted to pH 7.4) for both apical to basolateral (A>B) and basolateral to apical (B>A) measurements. Incubations were performed at 37° C., with samples removed from both donor and acceptor chambers at T=0 and 1 hour and compound analysed by mass spectrometry (LC-MS/MS) including an analytical internal standard.
Apparent permeability (Papp) values were determined from the relationship: Papp=(CompoundAcceptor T=end/(CompoundDonor×VDonorγIncubation Time)×VDonor Area×60×10^−6 cm/s
Where V is the volume of each Transwell compartment (apical 125 μL, basolateral 600 μL), and concentrations are the relative MS responses for compound (normalized to internal standard) in the donor chamber before incubation and acceptor chamber at the end of the incubation. Area=area of cells exposed for drug transfer (0.33 cm^2). Efflux ratio (Papp B>A /Papp A>B) was calculated from the mean Papp values in each direction. […] Lucifer Yellow (LY) was added to the apical buffer in all wells to assess viability of the cell layer. […] Compound recovery from the wells was determined from MS responses (normalized to internal standard) in donor and acceptor chambers at the end of incubation compared to response in the donor chamber pre-incubation.

Data set [4] can be described thus: Aqueous solubility (thermodynamic), LCMS/MS method. The class given is physicochemical. The conditions noted are these: 1 mg/mL theoretical, individual replicates; for solubility thermodynamic at 4 h: 25 °C, thermodynamic from solid. As to the method:
A 10 mM stock solution (in DMSO) was prepared for the test sample. From the 10 mM stock solution, a working solution of 1 μM was prepared by diluting the test sample in mobile phase solution (typically, methanol: 2 mM ammonium acetate containing suitable internal standard (IS)—carbamazepine/any other suitable IS). Further, the working solution was serially diluted in mobile phase solution up to 5 to 6 linearity point to prepare standard solution for plotting calibration curve. The area for each standard sample is analyzed in singlet using LCMS/MS. The normalized area values are plotted vs. concentration to achieve calibration equation to determine the unknown sample. […] Test compound was dispersed in buffer solution using a vortex mixer.
The resulting solution are then kept on RotoSpin (shaker) at 50 rpm for 4 hours for TD solubility at room temperature (25° C.). After the incubation period, the solution is filtered using 0.45 micron PVDF injector filters in order to remove the insoluble fraction of the compound. Filtrate is diluted in mobile phase and subsequently the AUC is ascertained for diluted samples using LCMS/MS. From the AUC of test sample the corresponding concentration is calculated using 5 to 6 point linearity/calibration curve.
All numbers reported as uM.

A short description of data set [5]: Fraction unbound (fu) in plasma or brain tissue homogenate. The conditions noted are these: parameter used in receptor occupancy prediction. The class given is in vitro ADME. An excerpt:
fu—fraction of compound unbound in plasma or brain tissue homogenate

In general, pEC50 refers to −log10 of the EC50, conventionally taken in molar units. In general, Papp A→B refers to how fast a substance crosses the layer from the apical side. Broadly, the Papp B→A is how fast a substance crosses the layer from the basolateral side. The term solubility (thermodynamic) denotes solubility found after equilibrating the solid with the medium. Usually fraction unbound stands for free concentration divided by total concentration. For `CC(C)(C)NC(=O)C1CCN([C@H]2C[C@H]3CC[C@@H](C2)N3c2nc(C(F)(F)F)no2)CC1` [Example 1, N-tert-butyl-1-{(1R,3r,5S)-8-[3-(trifluoromethyl)-1,2,4-oxadiazol-5-yl]-8-azabicyclo[3.2.1]octan-3-yl}piperidine-4-carboxamide], the EC50 is 67.6 nM in data set [1] (CHO cells stably expressing human M1, phospho-ERK1/2, read-out: pEC50 M1 (converted)) and 65.2 nM in data set [1] (as quoted in FIG. 1 legend, 50% target engagement, read-out: recombinant human EC50 (M1) (converted)). In addition, the negative logarithm of the EC50 (pEC50) in data set [1] (recombinant human EC50 (M1), as quoted in FIG. 1 legend, 50% target engagement) was 7.07. The figures for the hepatocyte CLint at 1 μM in data set [2] and in data set [3] were 7 µL/min/1e6 cells and 8 µL/min/1e6 cells, respectively. Further, the Papp A→B at 1 h, 1 μM in the data set on MDR1 (P-glycoprotein) (apical to basolateral, 1 μM, pH 7.4, 1 hour, read-out: Apparent permeability (Papp) A−B) is 66 ×10⁻⁶ cm/s. Besides, in the data set on MDR1 (P-glycoprotein) (basolateral to apical, 1 μM, pH 7.4, 1 hour, read-out: Apparent permeability (Papp) B−A), the Papp B→A at 1 h, 1 μM came to 77 ×10⁻⁶ cm/s. Also, in the data set with MDR1 (P-glycoprotein) (pH 7.4, read-out: B−A/A−B efflux ratio), the efflux ratio at 1 h, 1 μM is 1.2. Moreover, in data set [4] (Blank FaSSIF (Aq. Buffer) pH 6.5, 4 hours, 25° C.), the “Thermodynamic solubility, Blank FaSSIF pH 6.5 (n = 4)” value was 1941 uM and 1937 uM and 2022 uM. The thermodynamic solubility at 4 h in data set [4] (Blank FaSSIF (aqueous buffer), pH 6.5, aqueous buffer, Blank FaSSIF (Aq. Buffer) pH 6.5, 4 hours, read-out: Thermodynamic solubility, Blank FaSSIF pH 6.5 (n = 4)) was 1740 µM (≈ 749 µg/mL); in data set [4] (FaSSIF, pH 6.5, fassif, FaSSIF pH 6.5, 4 hours, read-out: Thermodynamic solubility, FaSSIF pH 6.5 (n = 4)) it was 2010 µM (≈ 862 µg/mL); in data set [4] (SGF, pH 1.2, simulated gastric fluid, SGF pH 1.2, 4 hours, read-out: Thermodynamic solubility, SGF pH 1.2 (n = 4)) it was 2080 µM (≈ 893 µg/mL). Moreover, the “Thermodynamic solubility, FaSSIF pH 6.5 (n = 4)” value in data set [4] (FaSSIF pH 6.5, 4 hours, 25° C.) was 2448 uM and 1713 uM and 2104 uM. In data set [4] (SGF pH 1.2, 4 hours, 25° C.), the “Thermodynamic solubility, SGF pH 1.2 (n = 4)” value is 1988 uM and 1702 uM and 2039 uM. The fraction unbound in data set [5] was 0.682.
